Patent US8148380B2, “Antibacterial amide and sulfonamide substituted heterocyclic urea compounds” (priority 2007, dated 2012)
≈ marks a conversion by molar mass, not a printed value.

Assays:
Type in all cases: cell-based
[1] = MIC against drug-resistant Gram-positive strains; details: read-out: MIC in clinically relevant resistant strains
Experimental: (§1) Compounds of the present invention were tested for antibacterial activity against a variety of pathogenic organisms including S. aureus, S. pneumoniae, S. pyogenes, E. faecalis, H. influenza and M. catarrhalis using a standard broth microdilution method to determine their minimum inhibitory concentrations (MICs). All compounds were tested using standard methods in accordance with CLSI guidelines (Clinical and Laboratory Standards Institute). Compounds described in Examples 1, 3-6, 8, 10-17, 19-21, 24-31, 33, 36, 38, 40, 54, 56-57, 59-71, 74-105, 107-108, 110-112, 114, 117-120, 122-142, 144-159, 162-179, 181-182, 184-225, 227-242, 244-319, 321-355, and 357-475 had MIC's of <0.12-4.0 μg/mL against some strains of the major Gram-positive organisms S. aureus, S. pneumoniae, S. pyogenes, and E. faecalis. […] Compounds described in Examples 11, 54, 60, and 208 shown to be bactericidal in S. aureus, E. faecalis, E. faecium, S. pyogenes, S. epidermidis and S. pneumoniae.
(§2) Compounds of the present invention were not compromised by existing resistance to all drug classes tested, including β-lactams, glycopeptides, oxazolidinones, macrolides, and fluoroquinolones. In particular, compounds described in Examples 11, 54, 60, and 208 were active against methicillin-(oxacillin-) resistant S. aureus (MRSA), vancomycin-intermediate S. aureus (VISA), linezolid-resistant S. aureus, methicillin-(oxacillin-) resistant and mupirocin resistant S. epidermidis, macrolide-resistant S. pyogenes, macrolide-, penicillin-, and levofloxacin-resistant S. pneumoniae, vancomycin-, macrolide-, and ciprofloxacin-resistant E. faecalis (VRE) and vancomycin-, macrolide-, and ciprofloxacin-resistant E. faecium.

[2] = system: MRSA, VISA, linezolid-resistant S. aureus, resistant S. epidermidis, S. pyogenes, S. pneumoniae, E. faecalis (VRE) and E. faecium; assay: MIC against drug-resistant Gram-positive strains; details: MRSA, VISA, linezolid-resistant S. aureus, resistant S. epidermidis, S. pyogenes, S. pneumoniae, E. faecalis (VRE), E. faecium
Experimental: as §1, §2

[3] = system: S. aureus, E. faecalis, E. faecium, S. pyogenes, S. epidermidis and S. pneumoniae; assay: Bactericidal activity
Experimental: as §1

[4] = MIC90 against resistant Gram-positive bacteria
Experimental: as §1

Cc1noc(C)c1C(=O)N(C)Cc1csc(NC(=O)NCc2ccc(Cl)c(Cl)c2)n1 [Example 11, N-((2-(3-(3,4-dichlorobenzyl)ureido)thiazol-4-yl)methyl)-N,3,5-trimethylisoxazole-4-carboxamide]
MIC [1]: 0.25 to 4 µg/mL (≈ 0.534 to 8.54 µM)
activity against drug-resistant strains [2]: active
bactericidal [3]: bactericidal

Cc1noc(C)c1C(=O)N(C)Cc1csc(NC(=O)NCc2cccc(F)c2)n1 [Example 54, N-((2-(3-(3-fluorobenzyl)ureido)thiazol-4-yl)methyl)-N,3,5-trimethylisoxazole-4-carboxamide]
MIC [1]: 0.25 to 4 µg/mL (≈ 0.599 to 9.58 µM)
activity against drug-resistant strains [2]: active
bactericidal [3]: bactericidal
MIC90 [4]: 1 to 4 µg/mL (≈ 2.4 to 9.58 µM)

CCc1noc(C)c1C(=O)N(C)Cc1csc(NC(=O)NCc2cccc(F)c2)n1 [Example 60, 3-ethyl-N-((2-(3-(3-fluorobenzyl)ureido)thiazol-4-yl)methyl)-N,5-dimethylisoxazole-4-carboxamide]
MIC [1]: 0.25 to 4 µg/mL (≈ 0.579 to 9.27 µM)
activity against drug-resistant strains [2]: active
bactericidal [3]: bactericidal
MIC90 [4]: 1 to 4 µg/mL (≈ 2.32 to 9.27 µM)

Cc1ncnc(C)c1C(=O)N(C)Cc1csc(NC(=O)NCc2cccc(F)c2)n1 [Example 96, N-((2-(3-(3-fluorobenzyl)ureido)thiazol-4-yl)methyl)-N,4,6-trimethylpyrimidine-5-carboxamide]
MIC90 [4]: 1 to 4 µg/mL (≈ 2.33 to 9.34 µM)

Cc1noc(C)c1C(=O)N(C)Cc1csc(NC(=O)NCc2ccc(Cl)s2)n1 [Example 107, N-((2-(3-((5-chlorothiophen-2-yl)methyl)ureido)thiazol-4-yl)methyl)-N,3,5-trimethylisoxazole-4-carboxamide]
MIC90 [4]: 1 to 4 µg/mL (≈ 2.27 to 9.09 µM)

CN(Cc1csc(NC(=O)NCc2cccc(F)c2)n1)C(=O)c1cc(O)nnc1Cl [Example 208, 3-Chloro-6-hydroxy-pyridazine-4-carboxylic acid {2-[3-(3-fluoro-benzyl)-ureido]-thiazol-4-ylmethyl}-methyl-amide]
MIC [1]: 0.25 to 4 µg/mL (≈ 0.554 to 8.87 µM)
activity against drug-resistant strains [2]: active
bactericidal [3]: bactericidal
MIC90 [4]: 1 to 4 µg/mL (≈ 2.22 to 8.87 µM)

Cc1noc(C)c1C(=O)N(C)C(C#N)c1csc(NC(=O)NCc2cccc(F)c2)n1 (stereo not drawn) [Example 214, 3,5-Dimethyl-isoxazole-4-carboxylic acid (cyano-{2-[3-(3-fluoro-benzyl)-ureido]-thiazol-4-yl}-methyl)-methyl-amide]
MIC90 [4]: 1 to 4 µg/mL (≈ 2.26 to 9.04 µM)
